According to article PMC4791841, “Nanomolar Inhibitors of Trypanosoma brucei RNA Triphosphatase” (mBio, 2016):
Like-named read-outs stand apart in the source and are kept apart here.

Columns and labels:
MimiCE = biological target: T1, MimiCE (Acanthamoeba polyphaga mimivirus, UniProt Q5UQX1); experiment: biochemical; format: biochemical; settings: for IC50/IC50 TbCet1, MimiCE: ratio in parentheses;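 on all read-outs here: mimivirus capping enzyme triphosphatase ATPase reaction, radiolabeled ATP hydrolysis to Pi quantified by TLC after 10 min, normalized to no-inhibitor control with 5% DMSO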
T1 construct: the N-terminal RTPase domain (amino acids [aa] 1 to 237) of mimivirus capping enzyme (MimiCE); HisSmt3 (N, cleaved yes); made in house; host or cells: Escherichia coli
T1 sequence (Q5UQX1 1-237): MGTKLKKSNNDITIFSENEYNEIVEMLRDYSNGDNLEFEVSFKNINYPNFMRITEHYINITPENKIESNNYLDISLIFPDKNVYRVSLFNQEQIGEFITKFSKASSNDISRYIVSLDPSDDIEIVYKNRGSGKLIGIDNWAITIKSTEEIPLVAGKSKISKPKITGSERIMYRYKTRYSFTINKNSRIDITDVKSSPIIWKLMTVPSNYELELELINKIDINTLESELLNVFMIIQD

SceCet1 = biological target: T2, SceCet1 (Saccharomyces cerevisiae, UniProt O13297); experiment: TLC assay for 32Pi release from [γ-32P]ATP, SceCet1; format: biochemical; settings: for IC50/IC50 TbCet1, SceCet1: ratio in parentheses
T2 construct: C-terminal catalytic domain (aa 241 to 539) of S. cerevisiae RTPase (SceCet1); made in house; host or cells: Escherichia coli
T2 sequence (O13297 241-539): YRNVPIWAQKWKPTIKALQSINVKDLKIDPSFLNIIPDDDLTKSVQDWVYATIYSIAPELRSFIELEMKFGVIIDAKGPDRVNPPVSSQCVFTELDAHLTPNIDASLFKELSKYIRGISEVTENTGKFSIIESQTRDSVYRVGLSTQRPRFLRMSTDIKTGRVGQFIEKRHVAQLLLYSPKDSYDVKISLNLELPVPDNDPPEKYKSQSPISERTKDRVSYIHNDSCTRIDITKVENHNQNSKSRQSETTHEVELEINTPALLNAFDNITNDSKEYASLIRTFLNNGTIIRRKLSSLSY

CthTTM = biological target: T3, CthTTM (Acetivibrio thermocellus, UniProt A3DIJ8); experiment: TLC assay for 32Pi release from [γ-32P]ATP, CthTTM; format: biochemical, Clostridium thermocellum; settings: for IC50/IC50 TbCet1, CthTTM: ratio in parentheses
T3 sequence (A3DIJ8 1-156): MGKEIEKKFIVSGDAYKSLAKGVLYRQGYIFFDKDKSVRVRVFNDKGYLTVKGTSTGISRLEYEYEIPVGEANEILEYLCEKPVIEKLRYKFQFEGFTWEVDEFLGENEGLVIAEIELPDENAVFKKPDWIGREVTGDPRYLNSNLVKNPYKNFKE

Lef4 = biological target: T4, Lef4 (Autographa californica nuclear polyhedrosis virus, UniProt P41477); experiment: TLC assay for 32Pi release from [γ-32P]ATP, Lef4; format: biochemical, Autographa californica nucleopolyhedrovirus (AcNPV); settings: for IC50/IC50 TbCet1, Lef4: ratio in parentheses;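 on all read-outs here: Lef4 RNA triphosphatase cleaving radiolabelled ATP over 10 min at 37°C, hydrolysis set relative to inhibitor-free 5% DMSO controls, comparisons made against TbCet1 tested the same way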
T4 construct: the N-terminal RTPase domain (aa 1 to 236) of AcNPV Lef4 capping enzyme; HisSmt3 (N, cleaved yes); made in house; host or cells: Escherichia coli
T4 sequence (P41477 1-236): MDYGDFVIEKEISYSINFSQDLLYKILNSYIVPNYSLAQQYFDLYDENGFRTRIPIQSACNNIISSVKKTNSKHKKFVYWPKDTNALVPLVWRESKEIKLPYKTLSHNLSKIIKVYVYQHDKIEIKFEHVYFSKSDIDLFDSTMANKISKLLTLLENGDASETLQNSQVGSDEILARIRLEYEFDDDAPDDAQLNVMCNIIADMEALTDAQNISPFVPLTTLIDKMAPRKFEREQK

TbCet1 [1] = biological target: T5, TbCet1 (Trypanosoma brucei brucei, UniProt Q582T2); experiment: TLC assay for 32Pi release from [γ-32P]ATP, TbCet1; settings: for IC50: 2.2 nM TbCet1, 0.2 mM ATP, 2 mM Mn2+, 10 min 37°C; for inhibition of TbCet1 (in words): 32P phosphate release assay
T5 sequence (Q582T2 1-253): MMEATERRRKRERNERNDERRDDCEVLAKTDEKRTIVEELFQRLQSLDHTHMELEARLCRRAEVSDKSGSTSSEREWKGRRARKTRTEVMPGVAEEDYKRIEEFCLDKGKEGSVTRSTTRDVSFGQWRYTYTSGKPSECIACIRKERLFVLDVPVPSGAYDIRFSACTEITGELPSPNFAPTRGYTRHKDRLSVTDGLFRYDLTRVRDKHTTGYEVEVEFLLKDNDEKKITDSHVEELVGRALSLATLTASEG

TbCet1 [2] = biological target: T5, TbCet1; experiment: colorimetric malachite green HTS assay of Pi release from ATP by TbCet1; settings: read-out: IC50 TbCet1; small-scale test library screens performed here and previously [37]
[3] = 50 nM Lef4, 37°C, read-out: IC50 Lef4
[4] = read-out: IC50 TbCet1 by 32P assay

O=C(O[C@@H]1C[C@@](O)(C(=O)O)C[C@@H](O)[C@@H]1O)c1cc(O)c(O)c(O)c1 [Compound 1O, 5-galloylquinic acid]
IC50 (MimiCE): > 500 µM
activity against MimiCE (in words) (MimiCE): no activity
IC50 (SceCet1): 10 µM
IC50/IC50 TbCet1, SceCet1 (SceCet1): 0.08
IC50 (CthTTM): > 500 µM
activity against CthTTM (in words) (CthTTM): no activity
activity against Lef4 (in words) (Lef4): no activity
IC50 (Lef4; [3]): > 500 µM
IC50 (TbCet1 [1]; IC50 TbCet1 by 32P assay): 125 µM

COc1cc(C=CC(=O)OC2[C@H](O)CC(O)(C(=O)O)C[C@H]2O)ccc1O (stereo partly shown) [Compound 1P, 4-feruoylquinic acid]
fold less effective against TbCet1 than 5-feruoylquinic acid (TbCet1 [1]): 13 fold
IC50 (TbCet1 [1]; [4]): 160 µM

COc1cc(/C=C/C(=O)OC2(C(=O)O)C[C@@H](O)C(O)[C@H](O)C2)ccc1O (stereo partly shown) [Compound 1R, 1-feruoylquinic acid]
inhibition of TbCet1 (in words) (TbCet1 [1]): inactive
IC50 (TbCet1 [1]; [4]): > 500 µM

O=C(/C=C/c1ccc(O)c(O)c1)O[C@@H]1C[C@@](O)(C(=O)O)C[C@@H](O)[C@@H]1O [Compound 1T, 5-caffeoylquinic acid]
IC50 (TbCet1 [1]; [4]): > 500 µM

O=C(O)/C=C/c1ccc(O)c(O)c1 [Compound 3B, caffeic acid]
IC50 (MimiCE): > 500 µM
activity against MimiCE (in words) (MimiCE): inactive
IC50 (SceCet1): > 500 µM
IC50 (CthTTM; 500 nM CthTTM, 37°C, read-out: IC50 CthTTM): 310 µM
IC50 (Lef4): 75 µM
IC50 (TbCet1 [1]; IC50 TbCet1 by 32P assay): 29 µM

O=C(/C=C/c1ccc(O)c(O)c1)O[C@@H]1[C@H](OC(=O)/C=C/c2ccc(O)c(O)c2)C[C@]2(OC(=O)/C=C/c3ccc(O)c(O)c3)C[C@H]1OC2=O [Compound 6A, 1,4,5-tricaffeoylquinide]
IC50 (MimiCE): 2 µM
IC50/IC50 TbCet1, MimiCE (MimiCE): 17
IC50 (SceCet1): 2 µM
IC50/IC50 TbCet1, SceCet1 (SceCet1): 17
IC50 (CthTTM): 6.4 µM
IC50/IC50 TbCet1, CthTTM (CthTTM): 53
IC50 (Lef4; [3]): 2.6 µM
IC50/IC50 TbCet1, Lef4 (Lef4): 22
IC50 (TbCet1 [1]; IC50 TbCet1 by 32P assay): 0.12 µM

CC(=O)O[C@@]12C[C@@H](OC(=O)/C=C/c3ccc(O)c(O)c3)[C@@H](OC(=O)/C=C/c3ccc(O)c(O)c3)[C@@H](C1)OC2=O [Compound 6C, 1-acetyl,4,5-dicaffeoylquinide]
IC50 (MimiCE): 15 µM
IC50/IC50 TbCet1, MimiCE (MimiCE): 4
IC50 (SceCet1): 14 µM
IC50/IC50 TbCet1, SceCet1 (SceCet1): 4
IC50 (CthTTM): 46 µM
IC50/IC50 TbCet1, CthTTM (CthTTM): 13
IC50 (Lef4; [3]): 21 µM
IC50/IC50 TbCet1, Lef4 (Lef4): 6
IC50 (TbCet1 [1]; IC50 TbCet1 by 32P assay): 3.6 µM
fold lowered potency against TbCet1 versus compound 6A (TbCet1 [1]; acetate for the R1 caffeic acid): 30 fold

O=C(C=Cc1ccccc1)OC1C=C(C(=O)O)CC(OC(=O)C=Cc2ccccc2)C1O (stereo not shown) [Compound 6D, 3,5-dicannamolylshikimate]
inhibition of TbCet1 (in words) (TbCet1 [1]): did not inhibit
IC50 (TbCet1 [1]; [4]): > 500 µM

O=C(/C=C/c1ccc(O)c(O)c1)O[C@@H]1CC(C(=O)O)=C[C@@H](O)[C@H]1O [Compound 6E, 5-caffeoylshikimate]
inhibition of TbCet1 (in words) (TbCet1 [1]): did not inhibit
IC50 (TbCet1 [1]; [4]): > 500 µM

O=C(O)[C@]1(O)C[C@@H](O)[C@@H](O)[C@H](O)C1 [Quinic acid, reference compound]
inhibition of TbCet1 (in words) (TbCet1 [1]): no inhibition

O=C(O)c1cc(O)c(O)c(O)c1 [gallic acid, 3,4,5-trihydroxybenzoic acid, reference compound]
inhibition of TbCet1 (in words) (TbCet1 [1]): no inhibition

pentagalloylgalloylglucose [tannic acid]
IC50 (TbCet1 [2]): 0.06 µM
